{"source": "patent US20130150399A1", "about": "“INHIBITORS OF THE UNFOLDED PROTEIN RESPONSE AND METHODS FOR THEIR USE” (The Board of Trustees of the Leland Stanford Junior …, priority 2006, published 2013)", "key": {"HT1080 tumor xenografts": {"system": "HT1080 tumor xenografts", "assay": "Immunohistochemical analysis of tumor xenografts (pimonidazole, cleaved caspase-3)", "format": "in vivo, mice", "conditions": "three doses, 50 mg/kg", "description": "Tumor-bearing mice were injected i.p. with hypoxyprobe (50 mg/kg) 1 hour prior to sacrifice. Mice were euthanised under anesthesia by cervical dislocation, and tumors were surgically resected, embedded in OCT compound (Sakura Tissue Tek), and frozen at −80° C. Tumors were sectioned at 8 μm, fixed in 4% paraformaldehyde, and blocked in PBS-4% BSA. Tissue sections were incubated overnight in block solution containing antisera specific for hypoxyprobe (1:250) and cleaved caspase-3 (1:400). Slides were washed three times with block solution and incubated for 2 hours at room temperature with anti-mouse Alexa 488 or anti-rabbit Alexa 594 (Invitrogen, San Diego, Calif.). Slides were washed five times in block solution, and coverslips mounted with Permount supplemented with DAPI.\nImmunohistochemical analysis of tumor xenografts. […] D. Quantification of tumor immunohistochemistry. At least 8 randomly chosen fields (>300 cells/field) per tumor were scored for pimonidazole and cleaved caspase-3 staining. A minimum of 3 tumors (250-300 mm^3 at harvest) were analyzed per treatment group. […]\nWe further examined tumors from control and irestatin-treated mice for differences in cell survival. […] The increase in apoptosis was most pronounced in hypoxic tissue regions of tumors, as determined by co-immunoreactivity for pimonidazole adducts (FIG. 14C, bottom panel). […]"}, "P58^IPK, DER-1": {"system": "P58^IPK, DER-1", "assay": "Northern blot of XBP-1s transcription targets, HT1080 cells", "format": "cell-based, human", "conditions": "2 μM; Tm or hypoxia 24 hours", "description": "Cells were cultured in 10 cm plates, harvested, and total RNA recovered with Trizol (Invitrogen, San Diego, Calif.). Total RNA (10 μg) was resolved on a 1% agarose-formaldehyde gel. ^32P-labeled probes were prepared using the Rediprime II random-prime labeling kit (GE-Amersham, Buckinghamshire, UK). The primers used to PCR amplify probes are as follows. P58^IPK: 5′[…] 3′ (SEQ ID NO: 4); 5′ […] 3′ (SEQ ID NO: 5). DER-1: 5′ […] 3′ (SEQ ID NO: 6); 5′[…] 3′ (SEQ ID NO: 7). Blots were incubated with probe overnight, washed three times in 2×SSC/0.2% SDS, dried, and exposed to a phosphorimager screen overnight. Images were analyzed using ImageQuant software (Molecular Dynamics).\nA. XBP-luciferase reporter construct. Firefly luciferase was inserted downstream of the IRE1α splice site in human XBP-1 to enable the conditional translation of luciferase under ER stress in an IRE1α-dependent manner. […] After 24 hours, luciferase activity was analyzed in an automated plate reader. For each cell line, values are expressed as the percent inhibition of the median for Tm/Tg-treated wells, corrected for background. […] Values are expressed as the fold increases over uninduced levels. […] Cells were harvested, lysed, and analyzed by immunoblotting with antisera specific for HIF-1α (top), XBP-1s (middle) or actin (bottom). […] Total RNA was analyzed by Northern blotting using radiolabeled probes specific for P58^IPK or DER-1. […]"}}}
{"smiles": "Cc1csc(NC(=O)CSc2nc3c(c(C(F)(F)F)c2C#N)CCC3)n1", "note": "[Compound 9389]", "values": [{"measurement": "cleaved caspase-3 in tumors relative to vehicle", "setting": "HT1080 tumor xenografts", "result": "significant increase in cleaved caspase-3"}, {"measurement": "apoptotic fraction of hypoxic cells in tumors", "setting": "HT1080 tumor xenografts; cleaved caspase-3 in pimonidazole-positive cells", "result": "~45", "unit": "%"}, {"measurement": "induction of P58^IPK and DER-1 expression", "setting": "P58^IPK, DER-1", "result": "fully inhibited this response"}]}
